Experimental data from article PMC3907559, “KDT501, a Derivative from Hops, Normalizes Glucose Metabolism and Body Weight in Rodent Models of Diabetes” (PLoS ONE, 2014).

Columns and labels:
[1] = tested on: THP-1 cells; assay: LPS-stimulated inflammatory mediators in THP-1 cells; assay type: cell-based, human; conditions: 1 hour pre-incubation, LPS 1 µg/mL overnight, various concentrations (KDT501 6.25 to 50 µM)
Description: THP-1 cells were maintained in RPMI1640 in the presence of 10% serum according to manufacturer's instructions as described earlier. The cells were pre-incubated with various concentrations of test compounds (KDT501, rosiglitazone, telmisartan, DHA or PGJ2) in the presence of 1% serum medium for 1 hour, then stimulated with TNF-α (10 ng/ml) or LPS (1 µg/ml) overnight (16–20 hours. Cytokines were assayed using a Milliplex MAP human cytokine/chemokine kit and Luminex 100™ IS. Data were analyzed using a five-parameter logistic method and represented as Mean ±SD of four independent samples.

[2] = tested on: human subcutaneous adipocytes; assay: Lipogenesis in human subcutaneous adipocytes (Oil Red O); assay type: cell-based; conditions: 10 days, relative to DMSO
Description: (§1) Murine 3T3-L1 preadipocytes were maintained in DMEM supplemented with 10% FBS as described earlier. Cells were seeded at an initial density of approximately […] in 24-well plates. After confluence, cells were treated with KDT501 ([…]), rosiglitazone (10 µM), or DMSO on day 0. Cells were differentiated in differentiation medium consisting of 10% FBS/DMEM, 0.5 mM methylisobutylxanthine, 0.5 µM dexamethasone, and 10 µg/mL insulin. After two days, the medium was changed to progression medium consisting of 10 µg/mL insulin in 10% FBS/DMEM followed by 2 more days in maintenance medium consisting of 10% FBS/DMEM. KDT501 or rosiglitazone were included throughout the maturation phase (day 6/day 7). Human subcutaneous primary adipocytes were maintained as described for 3T3L1 adipocytes and treated with rosiglitazone (1 µM), KDT501 (10 µM), telmisartan (10 µM), DHA (10 µM) or PGJ2 (10 µM) for 10 days. Intracellular lipid was quantified with Oil O-Red staining using an adipogenesis assay kit from (Millipore, Billerica, MA). The medium was carefully discarded and washed twice with PBS. 300 µL Of Oil O-Red solution were added and incubated for 15 minutes at room temperature. The cells were washed, and bound dye was extracted and transferred to a 96 well plate. Absorbance was measured at 530 nm using a plate reader (Thermo Electron Corp.). Fold change relative to DMSO control was calculated from four independent wells for each condition. Data represent Mean ± SD.

[3] = tested on: ZDF rats; assay: Second ZDF rat study (total cholesterol, triglycerides in plasma); assay type: in vivo; conditions: twice daily oral
Description: Blood was collected via tail bleed and whole blood glucose was measured on days 1, 8, 15 and 29. Blood was collected in 5 animals on days 15 and 29 for determination of glucose, insulin, lipids, hematocrit, and HbA1c. Animals were fasted overnight and OGTT was conducted on days 31 and 32 for determination of glucose and insulin levels. A second ZDF rat study was conducted and the resulting data on total cholesterol are presented. Statistical calculations were performed (JMP version, SAS Institute, Cary, NC). One-way ANOVA with Dunnett's test for post hoc determinations were used to compare vehicle treated control. Data were expressed as mean ± SEM.

[4] = tested on: DIO mice; assay: DIO mice, oral dosing twice daily (body fat, OGTT); assay type: in vivo, C57Bl6/J male mice; conditions: for OGTT glucose AUC / OGTT insulin AUC: four weeks, vs controls
Description: C57Bl6/J male mice were 15 weeks old at the start of the experiment. In general, DIO models are initiated at an early age to evaluate effects on obesity. However, older, overweight mice were used in this study to represent middle-aged human subjects for the assessment of metabolic parameters associated with weight loss/diabetes. The mice were housed individually in cages at 72±4°F with a relative humidity of 30–70% with 12 hour light- dark cycle. High fat diet (40% Cal) TD95217 (Teklad Custom Research Diet) was used in this study. The test compounds were administered orally twice per day at 12 hour intervals (10 mL/kg) in 0.5% methylcellulose and 0.2% Tween 80 (w/v). Mice were randomly allocated on the basis of body weight to seven groups (N = 10/group), with five animals for the oral glucose tolerance test (OGTT) and 5 animals for the insulin tolerance test. […] Body weight and food consumption were determined weekly. After 30 days, the mice were fasted overnight, blood was drawn through the tail vein and baseline blood glucose was measured using a glucose analyzer. One hour later, mice were given an oral gavage of glucose solution in water (4 ml/kg, 2 g/kg) and blood samples were taken at 15, 30, 60, and 120 min to determine plasma glucose and insulin levels. Five days before the start of the experiment (t = −5 days) and again at the end of the experiment (t = 28 days), body fat was determined using QNMR. With the exception of the group treated with 200 mg/kg KDT501, 10 animals/group were used in the determinations. Insulin and HbA1c glucose levels were determined on days 1, 15 and 29. Statistical calculations were performed (JMP version, SAS Institute, Cary, NC). One-way ANOVA with Dunnett's test for post hoc determinations were used to compare vehicle treated control. Data were expressed as mean ± SEM.

[5] = tested on: Zucker Diabetic Fatty (ZDF) rats; assay: ZDF rats, oral dosing twice daily (weight, HbA1c, glucose, OGTT); assay type: in vivo, rat
Description: Male ZDF rats were obtained from Charles River Laboratories at approximately 7 weeks of age. Rats were maintained ad lib on Purina #5008 diet, delivering approximately 17% of calories from fat. Animals with fasting glucose between 150–350 mg/dL were randomized based on glucose and body weight. Test articles were prepared in 0.5% (w/v) methylcellulose + 0.2% (w/v) Tween 80 and given by oral gavage twice daily. Rats (10/group, 6 treatment groups) were administered KDT501 (100, 150, or 200 mg/kg), metformin (200 mg/kg), pioglitazone (30 mg/kg) or vehicle control for up to 32 days. Body weights and food intake were determined weekly. Blood was collected via tail bleed and whole blood glucose was measured on days 1, 8, 15 and 29. Blood was collected in 5 animals on days 15 and 29 for determination of glucose, insulin, lipids, hematocrit, and HbA1c. Animals were fasted overnight and OGTT was conducted on days 31 and 32 for determination of glucose and insulin levels. A second ZDF rat study was conducted and the resulting data on total cholesterol are presented. Statistical calculations were performed (JMP version, SAS Institute, Cary, NC). One-way ANOVA with Dunnett's test for post hoc determinations were used to compare vehicle treated control. Data were expressed as mean ± SEM.

[6] = tested on: RAW264.7 cells; assay: LPS-activated PGE2 and NO in RAW264.7 cells; assay type: cell-based; conditions: results not shown
[7] = tested on: 3T3L1 adipocytes; assay: Lipogenesis in 3T3L1 adipocytes (Oil Red O); assay type: cell-based, murine; conditions: 10 µM, 6 days, relative to DMSO
Description: as §1, with “The cells were washed, and bound dye was extracted and transferred to a 96 well plate.” left out, “Data represent Mean ± SD.” left out

[8] = tested on: human subcutaneous adipocytes; assay: Gene expression profile and gene ontology in human subcutaneous adipocytes; assay type: cell-based; conditions: 5 days
Description: Human subcutaneous primary adipocytes were maintained as described earlier. Cells were seeded at an initial density of approximately 2×10^6 cells in 6-well plates with PGM-2 medium (2 mL medium/well) and allowed to grow for 24 hr to confluence. Cells were treated with test compounds KDT501 (25 µM), rosiglitazone (1 µM), telmisartan (10 µM), or DMSO in adipocyte differentiating medium. The differentiation medium consisted of indomethacin, methylisobutylxanthine, dexamethasone, and insulin from PGM-2 single aliquots. After 5 days, the cells were washed in PBS, frozen in liquid nitrogen and shipped to Expression Analysis (Durham, NC) in dry ice. Three independent plates were used for each condition. RNA was extracted using the miRNeasy Mini Kit (Qiagen) as described by the manufacturer. RNA was isolated and expression profiling was performed using the Ambion WT Expression Kit (Life Technologies). Labeled target, which was hybridized to GeneChip Human Gene 1.0 ST Arrays (Affymetrix), was prepared essentially as described by the manufacturer. This cDNA was then used as a template for in vitro transcription using T7 RNA Polymerase to produce anti-sense RNA, which was then converted into single-stranded sense cDNA that was fragmented and labeled with biotin prior to hybridization to the GeneChip Arrays. […]

[9] = molecular target: T1, PPARγ (Homo sapiens, UniProt P37231); assay: PPARγ reporter assay (Indigo Biosciences); assay type: cell-based
T1 sequence (P37231 1-505): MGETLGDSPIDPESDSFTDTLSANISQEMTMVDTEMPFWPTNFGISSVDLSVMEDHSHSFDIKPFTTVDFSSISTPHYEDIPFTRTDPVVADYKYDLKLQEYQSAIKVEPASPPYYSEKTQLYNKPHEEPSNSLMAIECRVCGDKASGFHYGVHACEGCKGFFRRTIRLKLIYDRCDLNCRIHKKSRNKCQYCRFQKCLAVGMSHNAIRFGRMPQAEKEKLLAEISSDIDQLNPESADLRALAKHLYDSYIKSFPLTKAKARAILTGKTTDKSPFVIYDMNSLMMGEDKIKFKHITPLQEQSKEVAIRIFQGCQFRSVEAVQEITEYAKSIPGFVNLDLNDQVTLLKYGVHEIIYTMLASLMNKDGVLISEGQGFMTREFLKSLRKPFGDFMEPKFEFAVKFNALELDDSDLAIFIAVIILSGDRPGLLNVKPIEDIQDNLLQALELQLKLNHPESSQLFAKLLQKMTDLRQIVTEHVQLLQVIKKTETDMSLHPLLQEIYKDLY
Description: PPAR assay kits from Indigo Biosciences and supplemented protocols were used in this study. Briefly, the reporter cells were treated in triplicates with various concentrations of KDT501 (25–0.78 µM). Telmisartan (10–0.625 µM), GW590735 (10–0.03 µM), and GW0742 (1–0.01 µM) were used as positive controls for PPARγ, PPARα and PPARδ respectively. […]. Cells were incubated for 20 hours as per the protocol and read using a luminometer (Victor2, Perkin Elmer). Average relative light unit (RLU) values from blank wells were subtracted from all the samples. The final data were compared with DMSO control and statistical analyses were performed using GraphPad Prism.

With `CC/C=C\C/C=C\C/C=C\C/C=C\C/C=C\C/C=C\CCC(=O)O` [DHA] the “LPS stimulated IL-6” value [1] was “inhibited these cytokines in a concentration-dependent manner”, the “LPS stimulated MCP-1” value [1] was “inhibited these cytokines in a concentration-dependent manner” and the “LPS stimulated RANTES” value [1] was “inhibited these cytokines in a concentration-dependent manner”. The “lipogenesis, fold increase” value ([2]; 10 µM) was “No significant changes”.
With `CCCCC/C=C/C=C1/C(=O)C=C[C@@H]1C/C=C\CCCC(=O)O` [PGJ2, 5-deoxy-Δ12,14-PGJ2] the “LPS stimulated IL-6” value [1] was “inhibited these cytokines in a concentration-dependent manner”, the “LPS stimulated MCP-1” value [1] was “inhibited these cytokines in a concentration-dependent manner” and the “LPS stimulated RANTES” value [1] was “inhibited these cytokines in a concentration-dependent manner”. For the same compound, the “lipogenesis, fold increase” value ([2]; 10 µM) was 8.8 fold.
With `CN(C)C(=N)N=C(N)N` [metformin] the “total cholesterol in plasma” value ([3]; metformin group) was “neither metformin nor pioglitazone had this effect”, the “OGTT glucose AUC” value ([4]; 200 mg/kg twice per day oral) was “significantly reduced” and the “OGTT insulin AUC” value ([4]; 200 mg/kg twice per day oral) was “significantly reduced”. The “fat mass by the end of the study (QNMR)” value ([4]; 200 mg/kg twice per day oral, vs vehicle) was “Significant reduction” and the body weight ([5]; 200 mg/kg twice daily oral (metformin group)) was “gained weight”.
`CCc1ccc(CCOc2ccc(CC3SC(=O)NC3=O)cc2)nc1` (centres unmarked) [pioglitazone] was tested, and the “total cholesterol in plasma” value ([3]; pioglitazone group) was “neither metformin nor pioglitazone had this effect”, the triglycerides in plasma ([3]; pioglitazone group, day 15 and day 30) was “reduced triglycerides” and the “OGTT glucose AUC” value ([4]; 30 mg/kg twice per day oral) was “significantly reduced”. The “OGTT insulin AUC” value ([4]; 30 mg/kg twice per day oral) was “significantly reduced”, the “HbA1c at the end of the study” value ([5]; 30 mg/kg twice daily oral) was “approximately half that of the vehicle-treated control” and the body weight ([5]; 30 mg/kg twice daily oral) was “gained weight”.
`CN(CCOc1ccc(CC2SC(=O)NC2=O)cc1)c1ccccn1` (centres unmarked) [rosiglitazone] was tested, and the “induction of LPS-activated PGE2” value [6] was “not with rosiglitazone”, the “lipogenesis, fold increase” value [7] was “about 2.8 fold” and the “LPS stimulated IL-6” value [1] was “did not significantly affect”. For the same compound, the “LPS stimulated MCP-1” value [1] was “did not significantly affect”, the “LPS stimulated RANTES” value [1] was “did not significantly affect” and the “number of transcripts stimulated at least 2-fold” value ([8]; 1 µM) was 62. For the same compound, the “lipogenesis, fold increase” value ([2]; 1 µM) was 10.3 fold.
With `CCCc1nc2c(C)cc(-c3nc4ccccc4n3C)cc2n1Cc1ccc(-c2ccccc2C(=O)O)cc1` [telmisartan] the EC50 [9] was 13.4 µM, the “LPS stimulated IL-6” value [1] was “inhibited these cytokines in a concentration-dependent manner” and the “LPS stimulated MCP-1” value [1] was “inhibited these cytokines in a concentration-dependent manner”. The “LPS stimulated RANTES” value [1] was “inhibited these cytokines in a concentration-dependent manner”, the “number of transcripts changed” value ([8]; 10 µM, 5 up and 3 down, common to rosiglitazone and KDT501) was 8 and the “lipogenesis, fold increase” value ([2]; 10 µM) was 3.5 fold.
